According to patent US9072734B2, “Quaternary ammonium salt compounds” (Teijin Pharma Limited, priority 2009, dated 2015):
Counter-ions that a name gives are not always drawn.

Key:
[1] = target: T1, human β2 adrenergic receptor (Homo sapiens, UniProt P07550); test: Whole-cell cAMP Flashplate assay using CHO-K1 cells stably expressing human β2 adrenergic receptor; type: cell-based; settings: cAMP production
T1 construct: expressed in transfected cells; host or cells: CHO-K1

[2] = system: acetylcholine-induced bronchoconstriction in guinea pigs; test: Effects on acetylcholine-induced bronchoconstriction in guinea pigs; type: in vivo, guinea pig; settings: Cavia porcellus; 24 hours after 25 μg/kg of the compounds were administered; read-out: percentage of bronchoconstriction suppression with respect to the acetylcholine stimulation
Protocol: These in vivo assays are used to evaluate the bronchoprotective effects based on the M3 muscarinic receptor antagonist activity and the β2 adrenergic receptor agonist activity of test compounds. Hartley male guinea pigs (Nippon SLC, Inc.) weighing about 400-500 g were used. The animals were anesthetized by inhalation of Fluothane (Takeda Pharmaceutical Company Limited) in a plastic box. The test compounds were dissolved in physiological saline containing DMSO, and administered through the nasal cavity into the trachea at a dose of 0.04-25 μg/kg and at a volume of 0.4 mL/kg. For control animals, solvent without a test compound was administered. In general, animals awake several minutes after completion of the administration. The animals were anesthetized with an intraperitoneal administration of 33% urethane/0.8% α-chloralose at a dose of 3 mL/kg. In order to intravenously administer acetylcholine or histamine, a catheter was inserted into the carotid artery. In order to measure artificial respiration and airway ventilation pressure, a cannula was inserted into the trachea. Artificial respiration was applied to the animals at a volume of 10 mL/kg and at a frequency of 60/minute, using a ventilator (Harvard Apparatus). The airway ventilation pressure was measured by the Konzett-Roessler method using a general respiratory function analysis system (M.I.P.S). Prior to administration of acetylcholine or histamine, the airway ventilation pressure was measured and baseline values were recorded. Then, physiological saline was administered through the carotid artery catheter at a volume of 0.4 mL/kg, and the airway ventilation pressure was measured. Bronchoconstrictor response was induced by administering acetylcholine (40 μg/kg, 0.4 mL/kg) or histamine (15 μg/kg, 0.4 mL/kg) through the carotid artery catheter one hour after the administration of the test compounds, and the airway ventilation pressure at the maximum contractile response was recorded. In addition, in order to evaluate duration of action of the test compounds, the above-mentioned dose of acetylcholine or histamine was administered, 1 hour, 6 hours, 12 hours, 18 hours, and 24 hours after the administration of test compounds, and the airway ventilation pressure was measured in the same way. The percentage of suppression by the test compounds with respect to the airway contractile response was calculated according to the following formula. (%) Percentage of the airway constriction suppression=(Airway ventilation pressure of test compound-dosed and acetylcholine- or histamine-dosed animals−Baseline value)/(Airway ventilation pressure of acetylcholine- or histamine-dosed animals−Baseline value)×100
The 50% inhibitory doses (ID50 values) of the test compounds were analyzed by a sigmoidal logistic model using XLfit4 (IDBS, Ltd.) for the percentage of the bronchoconstriction suppression at different doses of the test compounds.

[3] = target: T2, human M3 muscarinic receptor (Homo sapiens, UniProt P20309); test: Inhibitory effect on methacholine-induced calcium influx, FLIPR assay, CHO-K1 cells stably expressing the human M3 muscarinic receptor; type: cell-based; settings: inhibition of calcium influx induced by methacholine
T2 construct: expressed in transfected cells; host or cells: CHO-K1
How it was run: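 Dye-loaded hM3 CHO-K1 cells were preincubated 180 s with compound solutions prepared at 10 two-fold concentrations (0.01–1000 nM). A 30 nM methacholine solution was then added. Fluorescence was traced for 170 s; max−min signal gave % inhibition against agonist and no-agonist controls, and IC50 came from a four-parameter logistic fit.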

T2 sequence (P20309 whole entry): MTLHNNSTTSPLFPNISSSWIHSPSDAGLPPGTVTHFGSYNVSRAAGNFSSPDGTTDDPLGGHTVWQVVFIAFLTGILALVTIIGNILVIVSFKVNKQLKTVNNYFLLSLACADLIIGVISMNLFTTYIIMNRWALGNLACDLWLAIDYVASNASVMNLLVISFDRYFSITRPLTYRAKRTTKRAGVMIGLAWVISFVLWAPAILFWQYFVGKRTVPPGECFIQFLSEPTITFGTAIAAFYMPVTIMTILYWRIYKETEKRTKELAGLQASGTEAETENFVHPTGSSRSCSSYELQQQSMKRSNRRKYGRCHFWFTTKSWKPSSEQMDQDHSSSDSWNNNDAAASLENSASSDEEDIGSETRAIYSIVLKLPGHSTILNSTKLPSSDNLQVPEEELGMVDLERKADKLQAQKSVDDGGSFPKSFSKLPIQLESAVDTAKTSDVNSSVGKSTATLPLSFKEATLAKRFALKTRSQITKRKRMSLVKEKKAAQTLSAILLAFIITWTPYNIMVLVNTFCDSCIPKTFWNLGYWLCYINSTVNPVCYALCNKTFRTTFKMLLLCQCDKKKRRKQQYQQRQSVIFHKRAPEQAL
T1 sequence (P07550 whole entry): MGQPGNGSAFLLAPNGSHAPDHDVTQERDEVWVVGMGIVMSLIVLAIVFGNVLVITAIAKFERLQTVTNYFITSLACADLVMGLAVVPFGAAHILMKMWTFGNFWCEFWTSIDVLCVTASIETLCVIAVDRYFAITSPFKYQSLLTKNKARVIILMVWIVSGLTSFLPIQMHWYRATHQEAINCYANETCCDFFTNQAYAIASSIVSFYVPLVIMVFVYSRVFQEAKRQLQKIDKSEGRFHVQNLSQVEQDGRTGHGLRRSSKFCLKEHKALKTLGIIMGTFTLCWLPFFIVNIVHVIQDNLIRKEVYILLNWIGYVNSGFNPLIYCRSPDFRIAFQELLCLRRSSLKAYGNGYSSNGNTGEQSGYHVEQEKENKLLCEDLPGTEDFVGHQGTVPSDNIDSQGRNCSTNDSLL

Structure (SMILES)	EC50 [1] [nM]	inhibition in vivo at 0.025 mg/kg [2] [%]	IC50 [3] [nM]
COc1cc(NC(=O)CCc2ccc(-c3ccccc3)c(NC(=O)OC3CC[N+](C)(C)CC3)c2)c(Cl)cc1CNC[C@H](O)c1ccc(O)c2[nH]c(=O)ccc12 [Example 2, 4-({[5-(2-{[2-chloro-4-({[(2R)-2-hydroxy-2-(8-hydroxy-2-oxo-1,2-dihydroquinolin-5-yl)ethyl]amino}methyl)-5-methoxyphenyl]carbamoyl}ethyl)-2-phenylphenyl]carbamoyl}oxy)-1,1-dimethylpiperidin-1-ium trifluoroacetate]	1.1	≥ 50	19.3
COc1cc(NC(=O)CCc2ccc(-c3ccccc3)c(NC(=O)OC3CC[N+](C)(C)CC3)c2)ccc1CNC[C@H](O)c1ccc(O)c2[nH]c(=O)ccc12 [Example 6, 4-({[5-(2-{[4-({[(2R)-2-hydroxy-2-(8-hydroxy-2-oxo-1,2-dihydroquinolin-5-yl)ethyl]amino}methyl)-3-methoxyphenyl]carbamoyl}ethyl)-2-phenylphenyl]carbamoyl}oxy)-1,1-dimethylpiperidin-1-ium trifluoroacetate]	1.7	≥ 50	9
C[N+]1(C)CCC(OC(=O)Nc2cc(CCC(=O)Nc3ccc4cc(CNC[C@H](O)c5ccc(O)c6[nH]c(=O)ccc56)ccc4c3)ccc2-c2ccccc2)CC1 [Example 12, 4-({[5-(2-{[6-({[(2R)-2-hydroxy-2-(8-hydroxy-2-oxo-1,2-dihydroquinolin-5-yl)ethyl]amino}methyl)naphthalen-2-yl]carbamoyl}ethyl)-2-phenylphenyl]carbamoyl}oxy)-1,1-dimethylpiperidin-1-ium trifluoroacetate]	4.6	≥ 50	26.4
COc1cc(NC(=O)CCCc2ccc(-c3ccccc3)c(NC(=O)OC3CC[N+](C)(C)CC3)c2)c(Cl)cc1CNC[C@H](O)c1ccc(O)c2[nH]c(=O)ccc12 [Example 18, 4-({[5-(3-{[2-chloro-4-({[(2R)-2-hydroxy-2-(8-hydroxy-2-oxo-1,2-dihydroquinolin-5-yl)ethyl]amino}methyl)-5-methoxyphenyl]carbamoyl}propyl)-2-phenylphenyl]carbamoyl}oxy)-1,1-dimethylpiperidin-1-ium trifluoroacetate]	0.6	≥ 50	8.9
C[N+]1(C)CCC(OC(=O)Nc2cc(CCCC(=O)Nc3ccc(CNC[C@H](O)c4ccc(O)c5[nH]c(=O)ccc45)cc3Cl)ccc2-c2ccccc2)CC1 [Example 19, 4-({[5-(3-{[2-chloro-4-({[(2R)-2-hydroxy-2-(8-hydroxy-2-oxo-1,2-dihydroquinolin-5-yl)ethyl]amino}methyl)phenyl]carbamoyl}propyl)-2-phenylphenyl]carbamoyl}oxy)-1,1-dimethylpiperidin-1-ium trifluoroacetate]	1.2	≥ 50	8.7
COc1cc(NC(=O)CCCc2ccc(-c3ccccc3)c(NC(=O)OC3CC[N+](C)(C)CC3)c2)ccc1CNC[C@H](O)c1ccc(O)c2[nH]c(=O)ccc12 [Example 20, 4-({[5-(3-{[4-({[(2R)-2-hydroxy-2-(8-hydroxy-2-oxo-1,2-dihydroquinolin-5-yl)ethyl]amino}methyl)-3-methoxyphenyl]carbamoyl}propyl)-2-phenylphenyl]carbamoyl}oxy)-1,1-dimethylpiperidin-1-ium trifluoroacetate]	2.6	≥ 50	16.8
COc1cc(NC(=O)CCCc2ccc(-c3ccccc3)c(NC(=O)OC3CC[N+](C)(C)CC3)c2)c(Br)cc1CNC[C@H](O)c1ccc(O)c2[nH]c(=O)ccc12 [Example 25, 4-({[5-(3-{[2-bromo-4-({[(2R)-2-hydroxy-2-(8-hydroxy-2-oxo-1,2-dihydroquinolin-5-yl)ethyl]amino}methyl)-5-methoxyphenyl]carbamoyl}propyl)-2-phenylphenyl]carbamoyl}oxy)-1,1-dimethylpiperidin-1-ium trifluoroacetate]	0.4	≥ 50	19
C[N+]1(C)CCC(OC(=O)Nc2cc(CCCOc3ccc(CCNC[C@H](O)c4ccc(O)c5[nH]c(=O)ccc45)cc3)ccc2-c2ccccc2)CC1 [Example 77, 4-{[(5-{3-[4-(2-{[(2R)-2-hydroxy-2-(8-hydroxy-2-oxo-1,2-dihydroquinolin-5-yl)ethyl]amino}ethyl)phenoxy]propyl}-2-phenylphenyl)carbamoyl]oxy}-1,1-dimethylpiperidin-1-ium trifluoroacetate]	1.5	≥ 50	36.3
